Here are results for seven molecules from BindingDB's records for doi:10.1021/jm990341r (University of Wisconsin-Milwaukee, 2000).

As usually defined, the Ki is the equilibrium dissociation constant of an inhibitor or competing ligand from its target.

For assay [1], the target named is T1, Gamma-aminobutyric acid receptor subunit alpha-3/beta-3/gamma-2 (Homo sapiens, UniProt P34903+P18507+P28472).
T1 sequence (P34903 whole entry): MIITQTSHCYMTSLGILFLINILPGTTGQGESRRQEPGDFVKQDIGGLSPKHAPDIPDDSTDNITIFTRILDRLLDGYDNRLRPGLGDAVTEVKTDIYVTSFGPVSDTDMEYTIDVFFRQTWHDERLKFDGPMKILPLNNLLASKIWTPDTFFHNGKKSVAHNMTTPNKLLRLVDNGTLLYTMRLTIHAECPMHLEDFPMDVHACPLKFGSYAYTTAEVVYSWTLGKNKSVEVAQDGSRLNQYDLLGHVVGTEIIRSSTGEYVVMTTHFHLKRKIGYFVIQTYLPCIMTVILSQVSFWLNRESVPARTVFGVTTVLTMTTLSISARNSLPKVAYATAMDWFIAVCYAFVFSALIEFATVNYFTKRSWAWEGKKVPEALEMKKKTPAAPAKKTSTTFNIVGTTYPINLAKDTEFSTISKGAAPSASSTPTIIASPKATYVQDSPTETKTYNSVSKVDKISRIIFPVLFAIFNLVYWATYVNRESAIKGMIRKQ
T1 sequence (P18507 whole entry): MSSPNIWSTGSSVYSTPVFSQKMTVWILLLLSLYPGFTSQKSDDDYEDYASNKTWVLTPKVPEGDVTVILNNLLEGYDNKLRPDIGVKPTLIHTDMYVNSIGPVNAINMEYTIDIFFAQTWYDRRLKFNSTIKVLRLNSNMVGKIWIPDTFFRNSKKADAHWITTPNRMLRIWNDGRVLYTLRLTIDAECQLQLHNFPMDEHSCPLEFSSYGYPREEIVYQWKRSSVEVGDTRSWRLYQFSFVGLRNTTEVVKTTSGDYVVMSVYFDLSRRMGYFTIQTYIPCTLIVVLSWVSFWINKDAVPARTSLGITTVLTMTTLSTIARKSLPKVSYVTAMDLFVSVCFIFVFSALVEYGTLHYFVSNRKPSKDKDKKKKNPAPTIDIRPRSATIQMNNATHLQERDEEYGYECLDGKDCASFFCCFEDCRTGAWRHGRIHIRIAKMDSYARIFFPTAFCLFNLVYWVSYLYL
T1 sequence (P28472 whole entry): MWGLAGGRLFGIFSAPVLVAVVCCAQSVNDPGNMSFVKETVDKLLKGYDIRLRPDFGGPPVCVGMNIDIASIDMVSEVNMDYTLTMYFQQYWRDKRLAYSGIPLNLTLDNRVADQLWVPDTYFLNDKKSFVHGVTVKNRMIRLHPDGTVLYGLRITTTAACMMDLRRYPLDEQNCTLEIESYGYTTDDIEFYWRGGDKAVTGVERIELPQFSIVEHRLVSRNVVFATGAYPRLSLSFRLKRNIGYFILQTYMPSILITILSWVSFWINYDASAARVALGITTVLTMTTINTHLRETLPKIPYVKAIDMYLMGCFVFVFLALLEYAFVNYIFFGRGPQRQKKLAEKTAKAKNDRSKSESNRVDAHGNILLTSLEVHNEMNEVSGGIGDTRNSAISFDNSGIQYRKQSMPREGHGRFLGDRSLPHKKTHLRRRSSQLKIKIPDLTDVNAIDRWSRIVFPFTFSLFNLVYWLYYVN
The assay is described as follows: Binding affinity for human recombinant gamma-aminobutyric-acid (GABA) A receptor alpha-3-beta-3-gamma-2.

Assay [2] has as its target Gamma-aminobutyric acid receptor subunit alpha-6/beta-3/gamma-2 (Homo sapiens, UniProt Q16445+P18507+P28472). The assay is described as follows: Binding affinity for human recombinant gamma-aminobutyric-acid (GABA) A receptor alpha-6-beta-3-gamma-2.
The target in assay [3] is T2, GABA-A receptor; alpha-2/beta-3/gamma-2 (Homo sapiens, UniProt P47869+P18507+P28472).
T2 sequence (P47869 whole entry): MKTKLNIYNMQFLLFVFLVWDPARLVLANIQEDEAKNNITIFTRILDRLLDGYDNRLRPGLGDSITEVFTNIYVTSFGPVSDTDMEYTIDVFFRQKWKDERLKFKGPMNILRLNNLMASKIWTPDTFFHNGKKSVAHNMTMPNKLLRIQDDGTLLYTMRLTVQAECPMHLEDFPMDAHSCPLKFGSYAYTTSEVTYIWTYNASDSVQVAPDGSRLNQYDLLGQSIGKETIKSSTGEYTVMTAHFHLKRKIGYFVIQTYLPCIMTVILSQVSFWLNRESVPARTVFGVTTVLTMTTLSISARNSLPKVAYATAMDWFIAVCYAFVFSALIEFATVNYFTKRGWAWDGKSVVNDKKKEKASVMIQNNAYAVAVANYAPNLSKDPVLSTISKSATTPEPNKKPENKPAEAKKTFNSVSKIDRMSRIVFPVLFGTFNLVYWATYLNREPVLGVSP
T2 sequence (P18507 whole entry): T1 sequence (P18507 whole entry)
T2 sequence (P28472 whole entry): T1 sequence (P28472 whole entry)
The assay is described as follows: Binding affinity to human recombinant gamma-aminobutyric-acid (GABA) A receptor alpha-2-beta-3-gamma-2.

In assay [4] the target is T3, GABA-A receptor; alpha-5/beta-3/gamma-2 (Homo sapiens, UniProt P31644+P18507+P28472).
T3 sequence (P31644 whole entry): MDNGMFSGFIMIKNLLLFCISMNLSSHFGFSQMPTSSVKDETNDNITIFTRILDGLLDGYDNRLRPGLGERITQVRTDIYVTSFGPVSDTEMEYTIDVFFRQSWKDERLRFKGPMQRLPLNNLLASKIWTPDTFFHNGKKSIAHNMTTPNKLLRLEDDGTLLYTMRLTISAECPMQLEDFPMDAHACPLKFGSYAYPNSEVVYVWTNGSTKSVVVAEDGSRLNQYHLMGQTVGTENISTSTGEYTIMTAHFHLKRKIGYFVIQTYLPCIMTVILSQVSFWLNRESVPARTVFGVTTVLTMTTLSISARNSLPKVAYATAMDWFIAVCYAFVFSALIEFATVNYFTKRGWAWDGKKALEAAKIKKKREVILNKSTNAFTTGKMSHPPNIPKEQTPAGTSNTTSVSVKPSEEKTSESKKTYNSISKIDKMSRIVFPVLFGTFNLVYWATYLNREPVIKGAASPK
T3 sequence (P18507 whole entry): T1 sequence (P18507 whole entry)
T3 sequence (P28472 whole entry): T1 sequence (P28472 whole entry)
The assay is described as follows: Binding affinity for human recombinant gamma-aminobutyric-acid (GABA) A receptor alpha-5-beta-3-gamma-2.

Assay [5] addresses T4, Gamma-aminobutyric acid receptor subunit alpha-1/beta-3/gamma-2 (Homo sapiens, UniProt P14867+P18507+P28472).
T4 sequence (P14867 whole entry): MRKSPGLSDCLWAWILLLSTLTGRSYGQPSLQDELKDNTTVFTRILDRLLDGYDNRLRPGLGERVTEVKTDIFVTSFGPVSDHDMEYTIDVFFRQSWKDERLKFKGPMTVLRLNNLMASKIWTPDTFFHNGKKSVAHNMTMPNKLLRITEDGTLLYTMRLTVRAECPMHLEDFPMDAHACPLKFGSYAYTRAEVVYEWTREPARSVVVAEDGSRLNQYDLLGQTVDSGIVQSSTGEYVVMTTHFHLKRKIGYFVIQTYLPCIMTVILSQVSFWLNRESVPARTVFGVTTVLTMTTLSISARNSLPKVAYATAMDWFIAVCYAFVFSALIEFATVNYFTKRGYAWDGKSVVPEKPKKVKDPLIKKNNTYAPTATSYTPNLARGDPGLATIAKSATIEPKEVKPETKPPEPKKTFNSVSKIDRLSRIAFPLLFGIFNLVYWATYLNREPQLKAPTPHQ
T4 sequence (P18507 whole entry): T1 sequence (P18507 whole entry)
T4 sequence (P28472 whole entry): T1 sequence (P28472 whole entry)
Description: Binding affinity for human recombinant gamma-aminobutyric-acid (GABA) A receptor alpha-1-beta-3-gamma-2.

Gamma-aminobutyric acid receptor subunit alpha-6/beta-3/gamma-2, sequence (Q16445 whole entry, one chain of several): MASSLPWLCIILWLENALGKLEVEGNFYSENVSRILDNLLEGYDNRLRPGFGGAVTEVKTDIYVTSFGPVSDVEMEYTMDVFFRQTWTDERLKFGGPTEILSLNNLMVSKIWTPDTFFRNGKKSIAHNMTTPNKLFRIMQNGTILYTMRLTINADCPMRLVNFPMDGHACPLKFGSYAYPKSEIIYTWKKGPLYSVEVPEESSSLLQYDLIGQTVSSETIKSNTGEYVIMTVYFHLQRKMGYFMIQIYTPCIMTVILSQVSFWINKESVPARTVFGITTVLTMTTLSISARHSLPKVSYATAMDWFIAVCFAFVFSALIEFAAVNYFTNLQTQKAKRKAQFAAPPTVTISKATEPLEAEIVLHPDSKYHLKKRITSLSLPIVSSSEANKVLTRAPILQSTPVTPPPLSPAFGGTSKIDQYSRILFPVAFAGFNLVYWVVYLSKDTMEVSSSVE

Regarding `CCOC(=O)c1[nH]cc2nc3ccc(OCc4ccccc4)cc3c-2c1COC` [6-Benzyloxy-4-methoxymethyl-9H-beta-carboline-3-carboxylic acid ethyl ester], in assay [1], the Ki turned out to be 6 nM.

For the molecule `c1ccc2c(c1)[nH]c1c[nH]c3c4ccncc4nc-3c12` [7,12-Dihydro-2,5,7,12-tetraaza-indeno[1,2-a]fluorene], the inhibition constant (Ki) was 31 nM in assay [1], > 10 µM in assay [2] and 24 nM in assay [3].

Consider `COc1ccc2c(c1)[nH]c1c3c4ccccc4nc-3c[nH]c12`, for which the Ki is > 10 µM in assay [2] and 12 nM in assay [3].

In the case of `Clc1ccc2c(c1)[nH]c1c3c4ccccc4nc-3c[nH]c12`, the inhibitory constant (Ki) in assay [1] was 24 nM; in assay [2], > 10 µM; in assay [3] it was 12 nM.

With `CCOC(=O)c1[nH]cc2nc3ccccc3c-2c1COC`, the Ki in assay [1] is 4.9 nM; in assay [4], 10 nM.

For `COCc1c(C(=O)OC(C)C)[nH]cc2nc3ccc(OCc4ccccc4)cc3c1-2` [6-Benzyloxy-4-methoxymethyl-9H-beta-carboline-3-carboxylic acid isopropyl ester(Abecarnil)], the Ki is > 1 µM in assay [2] and 12 nM in assay [5].

`c1ccc2c(c1)[nH]c1c[nH]c3c4cccnc4nc-3c12` [7,12-Dihydro-1,5,7,12-tetraaza-indeno[1,2-a]fluorene]: the Ki is 16 nM in assay [1], > 10 µM in assay [2] and 12 nM in assay [3].
